Patent US20220323490A1, “PREVENTION OF DISEASES IN HONEYBEES” (Arkema Inc., priority 2019, published 2022)
Entries after “also recorded” stand apart in the source; their conditions may differ. Read-outs that look alike come from different tables or passages of the source.

Tests used:
[1] = Stability of hydrogen peroxide in sugar solution; conditions: ambient temperature
[2] = test system: honeybee (Apis mellifera) workers; conditions: for X3, best estimate of EC5 concentration (Molar hydrogen peroxide): cubic model solution; for EC5 (Percent): percent H2O2 calculated from X3; for Predicted LC50 Log10 Molar (±se) / Predicted LC50 (Molar) / Predicted LC50 (Percent): oral, in 2M sucrose; for Predicted LC50 Log10 Molar (±se): Probit analysis; for Predicted LC50 (Molar): inverse of log10 data; for Predicted LC50 (Percent): percent hydrogen peroxide
Method: The twenty-four and forty-eight hour oral lethal concentration (LC50) of formulated hydrogen peroxide (HP) was determined for one-week and two-week old honeybee (Apis mellifera) workers fed a series of solutions of HP diluted in 2 Molar (M) sucrose.
Five hydrogen peroxide (HP) solutions at 4.7, 3.7, 2.7, 1.7, 0.7 M HP in 2 Molar (M) sucrose, and a 0.00 M HP 2M sucrose solution were prepared using 35% food grade hydrogen peroxide, molecular grade sucrose (Sigma Aldrich, USA), and molecular grade water (Sigma Aldrich, USA).
Approximately 200 bees were collected into several wooden cages, supplied with ad libitum HP-free 2M sucrose solution, water, and BeePro® supplemented pollen patty. Experimental trials commenced at seven and fourteen days after newly emerged honeybees were placed in cages.
Following this, an EC5 was calculated by solving the cubic (sigmoidal) model for ‘x’ given an intercept term constrained to zero (concentration) and a ‘y’ value of 0.05.

[3] = one-week old honeybees, 24 Hour
[4] = one-week old honeybees, 48 Hour
[5] = two-week old honeybees, 24 Hour
[6] = two-week old honeybees, 48 Hour

OO [hydrogen peroxide]
Stability (degradation) of hydrogen peroxide in sugar solution ([1]; 0.1% and 1.0% H2O2 in 50% (w/w) sucrose, over 7 weeks): No degradation; also recorded: stable in a sugar solution | Hydrogen peroxide concentration in sugar solution ([1]; nominal 0.1% H2O2 in 50% (w/w) sucrose, 10 days): 0.134 | Hydrogen peroxide concentration in sugar solution ([1]; nominal 0.1% H2O2 in 50% (w/w) sucrose, 27 days): 0.134 | Hydrogen peroxide concentration in sugar solution ([1]; nominal 0.1% H2O2 in 50% (w/w) sucrose, 51 days): 0.130 | Hydrogen peroxide concentration in sugar solution ([1]; nominal 0.1% H2O2 in 50% (w/w) sucrose, time 0): 0.134 | Hydrogen peroxide concentration in sugar solution ([1]; nominal 1.0% H2O2 in 50% (w/w) sucrose, 10 days): 1.089 | Hydrogen peroxide concentration in sugar solution ([1]; nominal 1.0% H2O2 in 50% (w/w) sucrose, 27 days): 1.058 | Hydrogen peroxide concentration in sugar solution ([1]; nominal 1.0% H2O2 in 50% (w/w) sucrose, 51 days): 1.089 | Hydrogen peroxide concentration in sugar solution ([1]; nominal 1.0% H2O2 in 50% (w/w) sucrose, time 0): 1.077 | Mean (±se) Mortality ([2]; 0.7 Molar H2O2 in 2M sucrose, one-week old honeybees, 24 Hour): 3.38 (1.38) | Mean (±se) Mortality ([2]; 0.7 Molar H2O2 in 2M sucrose, one-week old honeybees, 48 Hour): 9.63 (2.23) | Mean (±se) Mortality ([2]; 0.7 Molar H2O2 in 2M sucrose, two-week old honeybees, 24 Hour): 7.00 (2.19) | Mean (±se) Mortality ([2]; 0.7 Molar H2O2 in 2M sucrose, two-week old honeybees, 48 Hour): 12.75 (1.96) | Mean (±se) Mortality ([2]; 1.7 Molar H2O2 in 2M sucrose, one-week old honeybees, 24 Hour): 10.25 (1.42) | Mean (±se) Mortality ([2]; 1.7 Molar H2O2 in 2M sucrose, one-week old honeybees, 48 Hour): 18.13 (1.06) | Mean (±se) Mortality ([2]; 1.7 Molar H2O2 in 2M sucrose, two-week old honeybees, 24 Hour): 12.00 (2.32) | Mean (±se) Mortality ([2]; 1.7 Molar H2O2 in 2M sucrose, two-week old honeybees, 48 Hour): 16.25 (1.50) | Mean (±se) Mortality ([2]; 2.7 Molar H2O2 in 2M sucrose, one-week old honeybees, 24 Hour): 15.63 (1.19) | Mean (±se) Mortality ([2]; 2.7 Molar H2O2 in 2M sucrose, one-week old honeybees, 48 Hour): 19.88 (1.63) | Mean (±se) Mortality ([2]; 2.7 Molar H2O2 in 2M sucrose, two-week old honeybees, 24 Hour): 14.13 (2.12) | Mean (±se) Mortality ([2]; 2.7 Molar H2O2 in 2M sucrose, two-week old honeybees, 48 Hour): 19.50 (1.00) | Mean (±se) Mortality ([2]; 3.7 Molar H2O2 in 2M sucrose, one-week old honeybees, 24 Hour): 15.25 (1.70) | Mean (±se) Mortality ([2]; 3.7 Molar H2O2 in 2M sucrose, one-week old honeybees, 48 Hour): 21.50 (0.96) | Mean (±se) Mortality ([2]; 3.7 Molar H2O2 in 2M sucrose, two-week old honeybees, 24 Hour): 16.63 (1.92) | Mean (±se) Mortality ([2]; 3.7 Molar H2O2 in 2M sucrose, two-week old honeybees, 48 Hour): 20.75 (0.53) | Mean (±se) Mortality ([2]; 4.7 Molar H2O2 in 2M sucrose, one-week old honeybees, 24 Hour): 15.75 (1.53) | Mean (±se) Mortality ([2]; 4.7 Molar H2O2 in 2M sucrose, one-week old honeybees, 48 Hour): 21.38 (0.99) | Mean (±se) Mortality ([2]; 4.7 Molar H2O2 in 2M sucrose, two-week old honeybees, 24 Hour): 17.88 (1.51) | Mean (±se) Mortality ([2]; 4.7 Molar H2O2 in 2M sucrose, two-week old honeybees, 48 Hour): 20.13 (1.36) | honey bee mortality versus control group ([2]; all tested concentrations (0.7-4.7 M HP in 2M sucrose), Wilcoxon multiple comparisons P<0.001): significantly greater than mortality of honeybees in control group | X3, best estimate of EC5 concentration (Molar hydrogen peroxide) [2, 3]: 0.21 Molar | EC5 (Percent) [2, 3]: 0.57% | X3, best estimate of EC5 concentration (Molar hydrogen peroxide) [2, 4]: 0.15 Molar | EC5 (Percent) [2, 4]: 0.41% | Predicted LC50 Log10 Molar (±se) [2, 3]: 0.29 (0.02) Log10 Molar | Predicted LC50 (Molar) [2, 3]: 1.95 (0.09) Molar | Predicted LC50 (Percent) [2, 3]: 5.30 (0.25) Percent | Predicted LC50 Log10 Molar (±se) [2, 4]: −0.10 (0.03) Log10 Molar | Predicted LC50 (Molar) [2, 4]: 0.79 (0.05) Molar | Predicted LC50 (Percent) [2, 4]: 2.15 (0.14) Percent | Predicted LC50 Log10 Molar (±se) [2, 5]: 0.15 (0.03) Log10 Molar | Predicted LC50 (Molar) [2, 5]: 1.41 (0.10) Molar | Predicted LC50 (Percent) [2, 5]: 3.84 (0.28) Percent | Predicted LC50 Log10 Molar (±se) [2, 6]: −0.25 (0.06) Log10 Molar | Predicted LC50 (Molar) [2, 6]: 0.56 (0.08) Molar | Predicted LC50 (Percent) [2, 6]: 1.52 (0.22) Percent | X3, best estimate of EC5 concentration (Molar hydrogen peroxide) [2, 5]: 0.20 Molar | EC5 (Percent) [2, 5]: 0.54% | X3, best estimate of EC5 concentration (Molar hydrogen peroxide) [2, 6]: 0.15 Molar | EC5 (Percent) [2, 6]: 0.41%
